Laboratory results as given in ChEMBL document CHEMBL1133391, “Synthesis and antibacterial activity of 2alpha-functionalized 1beta-methylcarbapenems related to KR-21012” (Bioorg Med Chem Lett, 2000).
≈ marks a conversion by molar mass, not a printed value.

What was measured:
[1] = tested on: Enterobacter cloacae; assay: Compound was evaluated for in vitro antibacterial activity against Enterobacter cloacae P99 strain by agar dilution method; format: functional
[2] = tested on: Escherichia coli; assay: Compound was evaluated for in vitro antibacterial activity against Escherichia coli 078 strain by agar dilution method; format: functional
[3] = tested on: Escherichia coli; assay: Compound was evaluated for in vitro antibacterial activity against Escherichia coli 1507 E strain by agar dilution method; format: functional
[4] = tested on: Klebsiella oxytoca; assay: Compound was evaluated for in vitro antibacterial activity against Klebsiella oxytoca 1082 E strain by agar dilution method; format: functional
[5] = tested on: Klebsiella aerogenes; assay: Compound was evaluated for in vitro antibacterial activity against Klebsiella aerogenes 1522 E strain by agar dilution method; format: functional
[6] = tested on: Pseudomonas aeruginosa; assay: Compound was evaluated for in vitro antibacterial activity against Pseudomonas aeruginosa 1771 strain by agar dilution method; format: functional
[7] = tested on: Salmonella typhimurium; assay: Compound was evaluated for in vitro antibacterial activity against Salmonella Typhimurium by agar dilution method; format: functional, Salmonella enterica subsp. enterica serovar Typhimurium; conditions: Salmonella enterica
[8] = tested on: Streptococcus pyogenes; assay: Compound was evaluated for in vitro antibacterial activity against Streptococcus pyogenes 77A strain by agar dilution method; format: functional
[9] = tested on: Staphylococcus aureus; assay: Compound was evaluated for in vitro antibacterial activity against Staphylococcus aureus SG511 strain by agar dilution method; format: functional
[10] = tested on: Enterococcus faecium; assay: Compound was evaluated for in vitro antibacterial activity against Streptococcus faecium MD strain by agar dilution method; format: functional
[11] = tested on: Pseudomonas aeruginosa; assay: Compound was evaluated for in vitro antibacterial activity against Pseudomonas aeruginosa 1771 M strain by agar dilution method; format: functional
[12] = tested on: Staphylococcus aureus; assay: Compound was evaluated for in vitro antibacterial activity against Staphylococcus aureus 285 strain by agar dilution method; format: functional
[13] = Tmax at a single subcutaneous administration of 40 mg/kg in mice; format: ADME, organism-based; parameters: dose 40 mg/kg, route subcutaneous; conditions: mouse, in vivo, sc
[14] = Half-life at a single subcutaneous administration of 40 mg/kg in mice; format: ADME, organism-based; parameters: dose 40 mg/kg, route subcutaneous; conditions: mouse, in vivo, sc
[15] = Peak concentration at a single subcutaneous administration of 40 mg/kg in mice; format: ADME, organism-based; parameters: dose 40 mg/kg, route subcutaneous; conditions: mouse, in vivo, sc
[16] = molecular target: T1, Dipeptidase 1 (Sus scrofa) (UniProt P22412); assay: Compound was evaluated for DHP-1 stability by using purified porcine renal enzyme; format: functional
T1 sequence (whole entry): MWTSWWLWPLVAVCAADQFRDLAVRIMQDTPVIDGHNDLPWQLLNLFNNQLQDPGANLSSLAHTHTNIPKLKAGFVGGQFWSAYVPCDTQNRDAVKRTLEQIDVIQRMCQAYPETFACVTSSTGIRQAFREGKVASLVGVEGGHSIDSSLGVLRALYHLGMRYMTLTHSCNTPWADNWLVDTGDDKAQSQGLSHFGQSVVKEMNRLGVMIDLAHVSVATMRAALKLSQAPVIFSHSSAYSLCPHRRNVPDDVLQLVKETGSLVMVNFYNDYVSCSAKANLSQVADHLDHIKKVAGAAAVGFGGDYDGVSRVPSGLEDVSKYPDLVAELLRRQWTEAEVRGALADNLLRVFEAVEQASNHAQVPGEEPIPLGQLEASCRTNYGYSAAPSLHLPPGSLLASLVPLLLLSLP

[17] = tested on: Mus musculus; assay: In vivo protective activity administered sc 1 hr after ip Escherichia coli 078 strain infection in mice; format: functional; conditions: read-out: PD50
[18] = tested on: Mus musculus; assay: In vivo protective activity administered sc 1 hr after ip Streptococcus pyogenes 77A strain infection in mice; format: functional; conditions: read-out: PD50
[19] = Urinary recovery by disk method using Streptococcus pyogenes (0-24 h); format: ADME, organism-based; conditions: mouse, urine; read-out: UR
[20] = tested on: Mus musculus; assay: Area under the curve was determined for the compound at a single subcutaneous administration of 40 mg/kg in mice; format: ADME, organism-based; parameters: dose 40 mg/kg, route subcutaneous; unit not given here; conditions: in vivo, sc
[21] = tested on: Mus musculus; assay: In vivo protective activity administered sc 1 hr after ip Enterobacter cloacae P strain infection in mice; format: functional; conditions: read-out: PD50
[22] = molecular target: T1, Dipeptidase 1 (Sus scrofa); assay: Compound was evaluated for DHP-1 stability by using purified porcine renal enzyme which is represented as the relative rate of hydrolysis compared to imipenem (rate=100); format: functional

| Structure (SMILES) | MIC [1] | MIC [2] | MIC [3] | MIC [4] | MIC [5] | MIC [6] | MIC [7] | MIC [8] | MIC [9] | MIC [10] | MIC [11] | MIC [12] | Tmax [13] | half-life [14] | Cmax [15] | ED50 [17] | ED50 [18] | also measured |
| --- | --- | --- | --- | --- | --- | --- | --- | --- | --- | --- | --- | --- | --- | --- | --- | --- | --- | --- |
| C[C@H]1C([C@H](O)C(C)(C)C)=C(C(=O)[O-])N2C(=O)[C@H]([C@@H](C)O)C12.[Na+] (stereo not given in full) | 6.25 µg/mL | 0.781 µg/mL | 0.781 µg/mL | 12.5 µg/mL | 6.25 µg/mL | 100 µg/mL | 1.56 µg/mL | 0.049 µg/mL | 0.391 µg/mL | 12.5 µg/mL | 6.25 µg/mL | 0.391 µg/mL | – | – | – | – | – | – |
| CCC(C)[C@@H](O)C1=C(C(=O)[O-])N2C(=O)[C@H]([C@@H](C)O)C2[C@H]1C.[Na+] (stereo not given in full) | 3.12 µg/mL | 0.195 µg/mL | 0.195 µg/mL | 3.12 µg/mL | 3.12 µg/mL | 100 µg/mL | 0.195 µg/mL | 0.013 µg/mL | 0.098 µg/mL | 1.56 µg/mL | 1.56 µg/mL | 0.098 µg/mL | – | – | – | – | – | – |
| CC(C)[C@H](O)C1=C(C(=O)[O-])N2C(=O)[C@H]([C@@H](C)O)C2[C@H]1C.[Na+] (stereo not given in full) | 12.5 µg/mL | 1.56 µg/mL | 0.391 µg/mL | 25 µg/mL | 12.5 µg/mL | 100 µg/mL | 0.781 µg/mL | 0.025 µg/mL | 0.781 µg/mL | 12.5 µg/mL | 1.56 µg/mL | 0.781 µg/mL | – | – | – | – | – | – |
| C[C@@H](O)[C@H]1C(=O)N2C(C(=O)O)=C(S[C@@H]3CN[C@H](C(=O)N(C)C)C3)[C@H](C)[C@H]12 [MEROPENEM] | 0.025 µg/mL (≈ 0.0652 µM) | 0.013 µg/mL (≈ 0.0339 µM) | 0.025 µg/mL (≈ 0.0652 µM) | 0.049 µg/mL (≈ 0.128 µM) | 0.049 µg/mL (≈ 0.128 µM) | 0.361 µg/mL (≈ 0.941 µM) | 0.049 µg/mL (≈ 0.128 µM) | 0.013 µg/mL (≈ 0.0339 µM) | 0.013 µg/mL (≈ 0.0339 µM) | 6.25 µg/mL (≈ 16.3 µM) | 0.049 µg/mL (≈ 0.128 µM) | 0.195 µg/mL (≈ 0.509 µM) | 12.6 min | 14.4 min | 7600 ng/mL | 1.24 mg/kg | 4.6 mg/kg | Activity [16]: 32 |
| C[C@H]1C([C@H](O)C2CCCC2)=C(C(=O)[O-])N2C(=O)[C@H]([C@@H](C)O)C12.[Na+] (stereo not given in full) | 6.25 µg/mL | 0.195 µg/mL | 0.195 µg/mL | 3.12 µg/mL | 1.56 µg/mL | 100 µg/mL | 0.195 µg/mL | 0.013 µg/mL | 0.098 µg/mL | 0.781 µg/mL | 0.781 µg/mL | 0.098 µg/mL | – | – | – | – | – | – |
| CC(C)[C@@H](O)C1=C(C(=O)[O-])N2C(=O)[C@H]([C@@H](C)O)C2[C@H]1C.[Na+] (stereo not given in full) | 1.56 µg/mL | 0.049 µg/mL | 0.049 µg/mL | 1.56 µg/mL | 0.391 µg/mL | 100 µg/mL | 0.098 µg/mL | 0.007 µg/mL | 0.098 µg/mL | 1.56 µg/mL | 0.781 µg/mL | 0.098 µg/mL | 15 min | 41.4 min | 25000 ng/mL | 1.3 mg/kg | 1.19 mg/kg | dose excreted [19]: 25.1%; AUC [20]: 20.9; Activity [16]: 21; ED50 [21]: 1.37 mg/kg |
| CC[C@@H](O)C1=C(C(=O)[O-])N2C(=O)[C@H]([C@@H](C)O)C2[C@H]1C.[Na+] (stereo not given in full) | 0.781 µg/mL | 0.098 µg/mL | 0.098 µg/mL | 3.12 µg/mL | 0.391 µg/mL | 100 µg/mL | 0.391 µg/mL | 0.625 µg/mL | 0.098 µg/mL | 3.12 µg/mL | 1.56 µg/mL | 0.098 µg/mL | – | – | – | – | – | – |
| C[C@H]1C([C@@H](O)C2CC2)=C(C(=O)[O-])N2C(=O)[C@H]([C@@H](C)O)C12.[Na+] (stereo not given in full) | 0.781 µg/mL | 1.56 µg/mL | 0.195 µg/mL | 6.25 µg/mL | 0.781 µg/mL | 100 µg/mL | 1.56 µg/mL | 0.098 µg/mL | 0.195 µg/mL | 3.12 µg/mL | 3.12 µg/mL | 0.781 µg/mL | – | – | – | – | – | – |
| CO[C@H]1CCC[C@H]2C1=C(C(=O)[O-])N1C(=O)[C@H]([C@@H](C)O)[C@@H]21.[Na+] [SANFETRINEM SODIUM] | 3.12 µg/mL | 0.049 µg/mL | 0.195 µg/mL | 1.56 µg/mL | 0.391 µg/mL | 25 µg/mL | 0.195 µg/mL | 0.007 µg/mL | 0.098 µg/mL | 1.56 µg/mL | 0.391 µg/mL | 0.049 µg/mL | 22.2 min | 33 min | 28800 ng/mL | 3.13 mg/kg | 1.46 mg/kg | dose excreted [19]: 20.5%; AUC [20]: 27.39; Activity [16]: 20; ED50 [21]: 1.18 mg/kg |
| C[C@H]1C([C@H](O)C2CC2)=C(C(=O)[O-])N2C(=O)[C@H]([C@@H](C)O)C12.[Na+] (stereo not given in full) | 0.781 µg/mL | 0.098 µg/mL | 0.049 µg/mL | 0.781 µg/mL | 0.195 µg/mL | 100 µg/mL | 0.098 µg/mL | 0.007 µg/mL | 0.049 µg/mL | 0.781 µg/mL | 1.56 µg/mL | 0.049 µg/mL | 10.2 min | 18.6 min | 18100 ng/mL | 23.1 mg/kg | 7.94 mg/kg | dose excreted [19]: 14.3%; AUC [20]: 6.86; Activity [22]: 38; ED50 [21]: 12.6 mg/kg |
| CC[C@H](O)C1=C(C(=O)[O-])N2C(=O)[C@H]([C@@H](C)O)C2[C@H]1C.[Na+] (stereo not given in full) | 0.781 µg/mL | 0.391 µg/mL | 0.391 µg/mL | 12.5 µg/mL | 0.781 µg/mL | 100 µg/mL | 0.781 µg/mL | 0.049 µg/mL | 0.391 µg/mL | 12.5 µg/mL | 6.25 µg/mL | 0.391 µg/mL | – | – | – | – | – | – |
